Results published in patent publication US9738634B2, “Heterocyclic amide compound and herbicide” (SYNGENTA PARTICIPATIONS AG, priority 2013, dated 2017).

Columns and labels:
Type in all cases: in vivo
barnyard grass [1] = test: Test Example 1: weedkilling efficacy, preemergent weed treatment in the submerged state; A: barnyard grass; conditions: treatment dosage 252 g/ha
How it was run: (§1)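 Emulsion diluted with water to the specified per-hectare dosage is applied onto flood water (4 cm) over alluvial soil on the sowing day, with barnyard grass, bulrush and pondweed seeded and rice (2.5-leaf) transplanted; plants grow at 25–30 °C and are rated at 3 weeks.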

bulrush [2] = test: Test Example 1: weedkilling efficacy, preemergent weed treatment in the submerged state; B: bulrush; conditions: treatment dosage 252 g/ha
How it was run: as §1

oval-leafed pondweed [3] = test: Test Example 1: weedkilling efficacy, preemergent weed treatment in the submerged state; C: oval-leafed pondweed; conditions: treatment dosage 252 g/ha
How it was run: as §1

transplanted rice = test: Test Example 1: preemergent weed treatment in the submerged state, effect on crop; a: transplanted rice; conditions: treatment dosage 252 g/ha
How it was run: as §1

barnyard grass [4] = test: Test Example 2: weedkilling efficacy, growth period weed treatment in the submerged state; A: barnyard grass; conditions: treatment dosage 252 g/ha
How it was run: (§2)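 First, alluvial soil in pots is flooded to 4 cm and mixed seed is sown. Next, plants grow in a greenhouse at 25 to 30° C until the 1-2 leaf stage. Then diluted emulsion is applied onto the water surface at the given g/ha rate, and injury is assessed after 3 weeks.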

bulrush [5] = test: Test Example 2: weedkilling efficacy, growth period weed treatment in the submerged state; B: bulrush; conditions: treatment dosage 252 g/ha
How it was run: as §2

oval-leafed pondweed [6] = test: Test Example 2: weedkilling efficacy, growth period weed treatment in the submerged state; C: oval-leafed pondweed; conditions: treatment dosage 252 g/ha
How it was run: as §2

crabgrass [7] = test: Test Example 3: weedkilling efficacy through soil treatment; D: crabgrass; conditions: treatment dosage 315 g/ha
How it was run: (§3)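 Crop and weed responses were judged three weeks after a uniform surface spray of the water-diluted emulsion at the given g/ha rate. Seeds sat beneath about 1.5 cm of sterilized diluvial soil, and boxes stood in a greenhouse at 25 to 30° C.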

green foxtail [8] = test: Test Example 3: weedkilling efficacy through soil treatment; E: green foxtail; conditions: treatment dosage 315 g/ha
How it was run: as §3

wild oat [9] = test: Test Example 3: weedkilling efficacy through soil treatment; G: wild oat; conditions: treatment dosage 315 g/ha
How it was run: as §3

black-grass [10] = test: Test Example 3: weedkilling efficacy through soil treatment; H: black-grass; conditions: treatment dosage 315 g/ha
How it was run: as §3

Italian ryegrass [11] = test: Test Example 3: weedkilling efficacy through soil treatment; I: Italian ryegrass; conditions: treatment dosage 315 g/ha
How it was run: as §3

Indian mallow [12] = test: Test Example 3: weedkilling efficacy through soil treatment; K: Indian mallow; conditions: treatment dosage 315 g/ha
How it was run: as §3

redroot pigweed [13] = test: Test Example 3: weedkilling efficacy through soil treatment; L: redroot pigweed; conditions: treatment dosage 315 g/ha
How it was run: as §3

fig-leafed goosefoot [14] = test: Test Example 3: weedkilling efficacy through soil treatment; M: fig-leafed goosefoot; conditions: treatment dosage 315 g/ha
How it was run: as §3

chickweed [15] = test: Test Example 3: weedkilling efficacy through soil treatment; N: chickweed; conditions: treatment dosage 315 g/ha
How it was run: as §3

catchweed [16] = test: Test Example 3: weedkilling efficacy through soil treatment; O: catchweed; conditions: treatment dosage 315 g/ha
How it was run: as §3

directly sown rice [17] = test: Test Example 3: soil treatment, effect on crop; b: directly sown rice; conditions: treatment dosage 315 g/ha
How it was run: as §3

corn [18] = test: Test Example 3: soil treatment, effect on crop; c: corn; conditions: treatment dosage 315 g/ha
How it was run: as §3

soybean [19] = test: Test Example 3: soil treatment, effect on crop; d: soybean; conditions: treatment dosage 315 g/ha
How it was run: as §3

wheat [20] = test: Test Example 3: soil treatment, effect on crop; e: wheat; conditions: treatment dosage 315 g/ha
How it was run: as §3

beet [21] = test: Test Example 3: soil treatment, effect on crop; f: beet; conditions: treatment dosage 315 g/ha
How it was run: as §3

crabgrass [22] = test: Test Example 4: weedkilling efficacy by foliar treatment; D: crabgrass; conditions: treatment dosage 315 g/ha
How it was run: (§4)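 Seeds are spot-sown into sterilized diluvial soil and covered with about 1.5 cm of soil. After 14 days' greenhouse growth at 25 to 30° C, plants are sprayed on stems and leaves with diluted emulsion at the stated g/ha rate, then scored at 3 weeks.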

green foxtail [23] = test: Test Example 4: weedkilling efficacy by foliar treatment; E: green foxtail; conditions: treatment dosage 315 g/ha
How it was run: as §4

wild oat [24] = test: Test Example 4: weedkilling efficacy by foliar treatment; G: wild oat; conditions: treatment dosage 315 g/ha
How it was run: as §4

black-grass [25] = test: Test Example 4: weedkilling efficacy by foliar treatment; H: black-grass; conditions: treatment dosage 315 g/ha
How it was run: as §4

Italian ryegrass [26] = test: Test Example 4: weedkilling efficacy by foliar treatment; I: Italian ryegrass; conditions: treatment dosage 315 g/ha
How it was run: as §4

Indian mallow [27] = test: Test Example 4: weedkilling efficacy by foliar treatment; K: Indian mallow; conditions: treatment dosage 315 g/ha
How it was run: as §4

redroot pigweed [28] = test: Test Example 4: weedkilling efficacy by foliar treatment; L: redroot pigweed; conditions: treatment dosage 315 g/ha
How it was run: as §4

fig-leafed goosefoot [29] = test: Test Example 4: weedkilling efficacy by foliar treatment; M: fig-leafed goosefoot; conditions: treatment dosage 315 g/ha
How it was run: as §4

chickweed [30] = test: Test Example 4: weedkilling efficacy by foliar treatment; N: chickweed; conditions: treatment dosage 315 g/ha
How it was run: as §4

catchweed [31] = test: Test Example 4: weedkilling efficacy by foliar treatment; O: catchweed; conditions: treatment dosage 315 g/ha
How it was run: as §4

birds-eye speedwell = test: Test Example 4: weedkilling efficacy by foliar treatment; p: birds-eye speedwell; conditions: treatment dosage 315 g/ha
How it was run: as §4

directly sown rice [32] = test: Test Example 4: foliar treatment, effect on crop; b: directly sown rice; conditions: treatment dosage 315 g/ha
How it was run: as §4

corn [33] = test: Test Example 4: foliar treatment, effect on crop; c: corn; conditions: treatment dosage 315 g/ha
How it was run: as §4

soybean [34] = test: Test Example 4: foliar treatment, effect on crop; d: soybean; conditions: treatment dosage 315 g/ha
How it was run: as §4

wheat [35] = test: Test Example 4: foliar treatment, effect on crop; e: wheat; conditions: treatment dosage 315 g/ha
How it was run: as §4

beet [36] = test: Test Example 4: foliar treatment, effect on crop; f: beet; conditions: treatment dosage 315 g/ha
How it was run: as §4

Compound | A (barnyard grass) weedkilling efficacy grade (barnyard grass [1]) | B (bulrush) weedkilling efficacy grade (bulrush [2]) | C (oval-leafed pondweed) weedkilling efficacy grade (oval-leafed pondweed [3]) | a (transplanted rice) effect on crop grade (transplanted rice) | A (barnyard grass) weedkilling efficacy grade (barnyard grass [4]) | B (bulrush) weedkilling efficacy grade (bulrush [5]) | C (oval-leafed pondweed) weedkilling efficacy grade (oval-leafed pondweed [6]) | D (crabgrass) weedkilling efficacy grade (crabgrass [7]) | E (green foxtail) weedkilling efficacy grade (green foxtail [8]) | G (wild oat) weedkilling efficacy grade (wild oat [9]) | H (black-grass) weedkilling efficacy grade (black-grass [10]) | I (Italian ryegrass) weedkilling efficacy grade (Italian ryegrass [11]) | K (Indian mallow) weedkilling efficacy grade (Indian mallow [12]) | L (redroot pigweed) weedkilling efficacy grade (redroot pigweed [13]) | M (fig-leafed goosefoot) weedkilling efficacy grade (fig-leafed goosefoot [14]) | N (chickweed) weedkilling efficacy grade (chickweed [15]) | O (catchweed) weedkilling efficacy grade (catchweed [16]) | b (directly sown rice) effect on crop grade (directly sown rice [17]) | c (corn) effect on crop grade (corn [18]) | d (soybean) effect on crop grade (soybean [19]) | further results
CC1=C(c2ccccc2)C(=O)N(C(C)(C)C(=O)Nc2cc(C(F)(F)F)cc(Cl)n2)CO1 [B-2-37] | 5 (weed kill ratio 90% or more, (practically complete withering)) | 5 (weed kill ratio 90% or more, (practically complete withering)) | 5 (weed kill ratio 90% or more, (practically complete withering)) | 2 (weed kill ratio 20% or more, less than 40%) | 5 (weed kill ratio 90% or more, (practically complete withering)) | 5 (weed kill ratio 90% or more, (practically complete withering)) | 5 (weed kill ratio 90% or more, (practically complete withering)) | 5 (weed kill ratio 90% or more, (practically complete withering)) | 5 (weed kill ratio 90% or more, (practically complete withering)) | 5 (weed kill ratio 90% or more, (practically complete withering)) | 5 (weed kill ratio 90% or more, (practically complete withering)) | 5 (weed kill ratio 90% or more, (practically complete withering)) | 4 (weed kill ratio 70% or more, less than 90%) | 5 (weed kill ratio 90% or more, (practically complete withering)) | 4 (weed kill ratio 70% or more, less than 90%) | 4 (weed kill ratio 70% or more, less than 90%) | 4 (weed kill ratio 70% or more, less than 90%) | 3 (weed kill ratio 40% or more, less than 70%) | 1 (weed kill ratio 5% or more, less than 20%) | 0 (weed kill ratio 5% or less (practically no effect)) | e (wheat) effect on crop grade (wheat [20]): 0 (weed kill ratio 5% or less (practically no effect)); f (beet) effect on crop grade (beet [21]): 4 (weed kill ratio 70% or more, less than 90%); D (crabgrass) weedkilling efficacy grade (crabgrass [22]): 5 (weed kill ratio 90% or more, (practically complete withering)); E (green foxtail) weedkilling efficacy grade (green foxtail [23]): 5 (weed kill ratio 90% or more, (practically complete withering)); G (wild oat) weedkilling efficacy grade (wild oat [24]): 3 (weed kill ratio 40% or more, less than 70%); H (black-grass) weedkilling efficacy grade (black-grass [25]): 4 (weed kill ratio 70% or more, less than 90%); I (Italian ryegrass) weedkilling efficacy grade (Italian ryegrass [26]): 4 (weed kill ratio 70% or more, less than 90%); K (Indian mallow) weedkilling efficacy grade (Indian mallow [27]): 4 (weed kill ratio 70% or more, less than 90%); L (redroot pigweed) weedkilling efficacy grade (redroot pigweed [28]): 4 (weed kill ratio 70% or more, less than 90%); M (fig-leafed goosefoot) weedkilling efficacy grade (fig-leafed goosefoot [29]): 3 (weed kill ratio 40% or more, less than 70%); N (chickweed) weedkilling efficacy grade (chickweed [30]): 4 (weed kill ratio 70% or more, less than 90%); O (catchweed) weedkilling efficacy grade (catchweed [31]): 3 (weed kill ratio 40% or more, less than 70%); P (birds-eye speedwell) weedkilling efficacy grade (birds-eye speedwell): 4 (weed kill ratio 70% or more, less than 90%); b (directly sown rice) effect on crop grade (directly sown rice [32]): 4 (weed kill ratio 70% or more, less than 90%); c (corn) effect on crop grade (corn [33]): 4 (weed kill ratio 70% or more, less than 90%); d (soybean) effect on crop grade (soybean [34]): 3 (weed kill ratio 40% or more, less than 70%); e (wheat) effect on crop grade (wheat [35]): 1 (weed kill ratio 5% or more, less than 20%); f (beet) effect on crop grade (beet [36]): 4 (weed kill ratio 70% or more, less than 90%)
CC1=C(c2ccccc2)C(=O)N(C(C)(C)C(=O)Nc2cc(Br)ccn2)CO1 [B-2-30] | 5 (weed kill ratio 90% or more, (practically complete withering)) | 5 (weed kill ratio 90% or more, (practically complete withering)) | 5 (weed kill ratio 90% or more, (practically complete withering)) | 1 (weed kill ratio 5% or more, less than 20%) | 5 (weed kill ratio 90% or more, (practically complete withering)) | 5 (weed kill ratio 90% or more, (practically complete withering)) | 3 (weed kill ratio 40% or more, less than 70%) | 5 (weed kill ratio 90% or more, (practically complete withering)) | 5 (weed kill ratio 90% or more, (practically complete withering)) | 5 (weed kill ratio 90% or more, (practically complete withering)) | 5 (weed kill ratio 90% or more, (practically complete withering)) | 5 (weed kill ratio 90% or more, (practically complete withering)) | 3 (weed kill ratio 40% or more, less than 70%) | 3 (weed kill ratio 40% or more, less than 70%) | 5 (weed kill ratio 90% or more, (practically complete withering)) | 4 (weed kill ratio 70% or more, less than 90%) | 5 (weed kill ratio 90% or more, (practically complete withering)) | 4 (weed kill ratio 70% or more, less than 90%) | 1 (weed kill ratio 5% or more, less than 20%) | 1 (weed kill ratio 5% or more, less than 20%) | e (wheat) effect on crop grade (wheat [20]): 0 (weed kill ratio 5% or less (practically no effect)); f (beet) effect on crop grade (beet [21]): 4 (weed kill ratio 70% or more, less than 90%); D (crabgrass) weedkilling efficacy grade (crabgrass [22]): 5 (weed kill ratio 90% or more, (practically complete withering)); E (green foxtail) weedkilling efficacy grade (green foxtail [23]): 5 (weed kill ratio 90% or more, (practically complete withering)); G (wild oat) weedkilling efficacy grade (wild oat [24]): 3 (weed kill ratio 40% or more, less than 70%); H (black-grass) weedkilling efficacy grade (black-grass [25]): 3 (weed kill ratio 40% or more, less than 70%); I (Italian ryegrass) weedkilling efficacy grade (Italian ryegrass [26]): 4 (weed kill ratio 70% or more, less than 90%); K (Indian mallow) weedkilling efficacy grade (Indian mallow [27]): 4 (weed kill ratio 70% or more, less than 90%); L (redroot pigweed) weedkilling efficacy grade (redroot pigweed [28]): 4 (weed kill ratio 70% or more, less than 90%); M (fig-leafed goosefoot) weedkilling efficacy grade (fig-leafed goosefoot [29]): 4 (weed kill ratio 70% or more, less than 90%); N (chickweed) weedkilling efficacy grade (chickweed [30]): 3 (weed kill ratio 40% or more, less than 70%); O (catchweed) weedkilling efficacy grade (catchweed [31]): 4 (weed kill ratio 70% or more, less than 90%); P (birds-eye speedwell) weedkilling efficacy grade (birds-eye speedwell): 4 (weed kill ratio 70% or more, less than 90%); b (directly sown rice) effect on crop grade (directly sown rice [32]): 5 (weed kill ratio 90% or more, (practically complete withering)); c (corn) effect on crop grade (corn [33]): 1 (weed kill ratio 5% or more, less than 20%); d (soybean) effect on crop grade (soybean [34]): 4 (weed kill ratio 70% or more, less than 90%); e (wheat) effect on crop grade (wheat [35]): 0 (weed kill ratio 5% or less (practically no effect)); f (beet) effect on crop grade (beet [36]): 4 (weed kill ratio 70% or more, less than 90%)
